One block for each molecule: values may come before it.
How the values were obtained:
[1] = target: T1, human serum albumin (HSA) (Homo sapiens, UniProt P02768); experiment: Labeling of human serum albumin (HSA) with Compound 8, 57Co incorporation, gamma ray counting; details: room temperature 30 minutes, PBS, gamma ray count
Description: HSA (0.5 mg, 7.5 nmol was dissolved in a PBS buffer solution (1.5 ml) to prepare a 5 μM HSA solution. 320 μl (1.6 nmol) of the HSA solution was introduced into each of 3 Eppendorf tubes. 1.2 μl (40 nmol), 2.3 μl (80 nmol) and 11.8 μl (0.4 μmol) of a DMF solution (3.38×10^−2M) of Compound 8 described above were added to the respective Eppendorf tubes. 160 μl (0.8 nmol) of the 5 μM HSA solution was added to each of the Eppendorf tubes, and 11.8 μl (0.4 μmol) of a DMF solution (3.38×10^−2M) of Compound 8 described above was added to each tube. The reaction mixtures all were left to stand at room temperature for 30 minutes. Purification was performed using a filter with a 30000 molecular weight cut off manufactured by Millipore, followed by concentration. The protein concentration in the contents of each Eppendorf tube was measured, 5 μl of the contents of each Eppendorf tube were added to other Eppendorf tubes, and a 0.25 M ammonium acetate buffer solution (15 μl) and a 400 μM ^57Co solution (10 μl) were added thereto. The reaction mixtures were incubated at 41° C. for 3 hours. 10 μl of a 0.01 M 1,4,7,10-tetraazacyclododecane-1,4,7,10-tetraacetic acid (DOTA) solution was added to each reaction mixture, and incubation was performed at 41° C. for 10 minutes. […] The silica gel plates were cut in half lengthwise, and gamma rays were counted with a gamma ray counter using the plates.

[2] = system: anti-GFP antibody; experiment: Labeling of anti-GFP antibody with Compound 8, GFP fluorescence measurement after immune precipitation; details: 10 to 1250 equivalents, room temperature 10 minutes; GFP fluorescence excitation 395 nm, emission 509 nm
Description: To a PBS buffer solution (81 μl) was added 27 μl of an anti-GFP antibody (20 μg/μl, PBS buffer solution, manufactured by Nacalai Tesque, Inc.) for dilution. The diluted anti-GFP solution was added to 4 Eppendorf tubes each in an amount of 3.3 μM, 8 μl, 2.6×10^−11 mol, and Compound 8 was added in a proportion of 10 equivalents (24 μM, 5 μl, 2.6×10^−10 mol), 50 equivalents (0.12 mM, 5 μl, 1.3×10^−9 mol), 250 equivalents (0.61 mM, 5 μl, 6.6×10^−9 mol) and 1250 equivalents (12 mM, 2.7 μl, 3.3×10^−8 mol) relative to the anti-GFP antibody. The mires were left to stand for 10 minutes at room temperature, and then a GFP antigen (cultured from Escherichia coli, PBS buffer solution, 1000 μl) was added and reacted at 4° C. for 1 hour. Thereafter, Protein G (500 μg, manufactured by GE Healthcare Ltd.) was added to the mixtures and left to stand at the same temperature for 30 minutes. Then, labeled anti-GFP (Compound 24) was purified by subjecting the mixtures to immune precipitation. GFP fluorescence measurement (excitation: 395 nm, emission: 509 nm) was performed on each anti-GFP.

[3] = target: T1, human serum albumin (HSA); experiment: Labeling of human serum albumin (HSA), fluorescence spectrum of the reaction product; details: phosphate buffer pH 7.4, 40° C. for 1 hour; 420 nm excitation light
Description: (§1) HSA was dissolved in a phosphate buffer (0.1 M, pH 7.4) to adjust the concentration to 5.0×10^−5 M. 20 μl of a phosphate buffer (0.1 M, pH 7.4) was added to 200 μl of the solution for dilution, and the mixture was pre-incubated at 40° C. for 5 minutes. A 1,4-dioxane (20 μl) solution of Compound 50 (50 μg, 0.1 μmol) was added to the mixture, and the mixture was incubated at 40° C. for 1 hour. 300 μl of 1% acetic acid was added to the reaction solution to quench the reaction, and the reaction solution was purified by gel filtration and lyophilized.
as §1, with “buffer solution” for “buffer”, “Compound 56” for “Compound 50”

[4] = PET imaging of the biodistribution of 68Ga-DOTA-labeled somatostatin in a rat; format: in vivo, rat (Wistar rat); details: tail vein, given as 68Ga-DOTA-labeled somatostatin (Compound 41), accumulated 3 to 7 minutes after administration
Description: A DMF solution (40 μl) of Compound 8 produced in Example 3 described above was added to a solution of somatostatin (0.17 mg, 0.10 μmol) in Otsuka distilled water (154 μl) and put into a vortex generator. The reaction mixture was left to stand at room temperature for 30 minutes and then lyophilized, thereby giving the titled Compound 9.
A 1 N hydrochloric acid solution (400 μl) of ^68GaCl3 eluted from a ^68Ga/^68Ge generator was purified, neutralized with aqueous 4 N NaOH and then added to Compound 9 described above. After incubation at 40° C. for 10 minutes, it was injected into a rat (Wistar rat 8W, male, 235 g) (1.68 mCi). Propofol was administered continuously at a rate of […] into the tail vein of the rat for tranquilization, and a PET tracer was administered into the tail vein of the rat.

T1 sequence (P02768 25-609): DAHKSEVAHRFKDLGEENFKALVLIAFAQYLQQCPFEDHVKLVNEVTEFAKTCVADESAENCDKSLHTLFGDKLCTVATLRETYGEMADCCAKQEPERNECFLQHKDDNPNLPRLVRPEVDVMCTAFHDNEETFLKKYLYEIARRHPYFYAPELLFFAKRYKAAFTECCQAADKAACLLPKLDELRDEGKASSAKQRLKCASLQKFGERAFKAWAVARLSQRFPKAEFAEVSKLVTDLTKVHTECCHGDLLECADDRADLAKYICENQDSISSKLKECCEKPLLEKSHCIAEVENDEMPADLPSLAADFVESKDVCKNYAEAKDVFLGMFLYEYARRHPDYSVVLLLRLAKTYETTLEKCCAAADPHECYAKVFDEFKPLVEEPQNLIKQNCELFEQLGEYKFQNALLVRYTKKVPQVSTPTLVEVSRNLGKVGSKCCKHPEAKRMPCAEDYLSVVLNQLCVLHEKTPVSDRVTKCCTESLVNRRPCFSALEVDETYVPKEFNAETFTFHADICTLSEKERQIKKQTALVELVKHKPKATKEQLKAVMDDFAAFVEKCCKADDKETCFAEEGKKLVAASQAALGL

labeling reaction with HSA (incorporation into HSA, FIG. 1) [1]: promptly reacts with somatostatin
Compound: CCOC(=O)C(/C=C/c1ccc(NC(=O)CNC(=O)CN2CCN(CC(=O)O)CCN(CC(=O)O)CCN(CC(=O)O)CC2)cc1)=C/C=O [Compound 8, 10-(2-(2-(4-((1E,3E)-3-ethoxycarbonyl-5-oxopenta-1,3-dienyl)phenylamino)-2-oxoethylamino)-2-oxoethyl)-1,4,7,10-tetraazacyclododecane-1,4,7-triacetic acid]
labeling reaction with anti-GFP antibody (incorporation into antibody, FIG. 2) [2]: promptly reacts with the anti-GFP antibody

Compound: CCN(CC)c1ccc2cc(C(=O)NCCOCCOC(=O)C(/C=C/c3ccccc3)=C/C=O)c(=O)oc2c1 [Compound 50, 2-(2-(7-diethylaminocoumarin)-3-carbonylaminoethoxy)ethyl (E,E)-4-oxo-2-styrylbut-2-enoate]
fluorescence of the reaction product with HSA [3]: intense fluorescence was observed near 460 nm

Compound: CCN(CC)c1ccc2cc(C(=O)NCCOCCOC(=O)C(/C=C/c3ccc(NC(=O)CCCCCNc4ccc([N+](=O)[O-])c5nonc45)cc3)=C/C=O)c(=O)oc2c1 [Compound 56, 2-(2-(7-diethylaminocoumarin)-3-carbonylaminoethoxy)ethyl (E,E)-4-oxo-2-((6-(N-(7-nitrobenz-2-oxa-1,3-diazol-4-yl)amino)hexanamide)styryl)but-2-enoate]
fluorescence of the reaction product with HSA [3]: intense fluorescence was observed near 460 nm

Compound: C[C@H](N)C(=O)NCC(=O)N[C@H]1CSSC[C@@H](C(=O)O)NC(=O)[C@H](CO)NC(=O)[C@H]([C@@H](C)O)NC(=O)[C@H](Cc2ccccc2)NC(=O)[C@H]([C@@H](C)O)NC(=O)[C@H](CCCCN)NC(=O)[C@H](Cc2c[nH]c3ccccc23)NC(=O)[C@H](Cc2ccccc2)NC(=O)[C@H](Cc2ccccc2)NC(=O)[C@H](CC(N)=O)NC(=O)[C@H](CCCCN)NC1=O [somatostatin]
distribution in the living body (PET image, FIG. 3) [4]: distributed across the heart of the rat
